Experimental data taken from patent US6110934A, “Substituted benzamide derivatives and their use as anticonvulsants” (SmithKline Beecham p.l.c., priority 1996, dated 2000).
Structures can show the parent of a compound that is named as a salt.

The compounds below were run against novel receptor obtainable from rat forebrain tissue (assay: Radioligand binding assay, displacement of [3H]-Compound A). Settings: competition with [3H]-Compound A (usually 20 nM), room temperature, 1 hour.
Procedure: The affinity of test compounds to the novel receptor site is assessed as follows. Whole forebrain tissue is obtained from rats. The tissue is first homogenised in buffer (usually 50 mM Tris/HCl, pH 7.4). The homogenised tissue is washed by centrifugation and resuspension in the same buffer, then stored at -70° C. until used. […] The final concentration of [3H]-Compound A in the mixture is usually 20 nM. The mixture is incubated at room temperature for 1 hour. [3H]-Compound A bound to the tissue is then separated from unbound [3H]-Compound A by filtration through Watman GF/B glass fibre filters. The filters are then washed rapidly with ice-cold buffer. The amount of radioactivity bound to the tissue trapped on the filters is measured by addition of liquid scintillation cocktail to the filters followed by counting in a liquid scintillation counter. In order to determine the amount of "specific" binding of [3H]-Compound A, parallel assays are carried out as above in which [3H]-Compound A and tissue are incubated together in the presence of unlabelled Compound A (usually 3 μM). The amount of binding of [3H]-Compound A remaining in the presence of this unlabelled compound is defined as "non-specific" binding. This amount is subtracted from the total amount of [3H]-Compound A binding (i.e. that present in the absence of unlabelled compound) to obtain the amount of "specific" binding of [3H]-Compound A to the novel site. The affinity of the binding of test compounds to the novel site can be estimated by incubating together [3H]-Compound A and tissue in the presence of a range of concentrations of the compound to be tested. The decrease in the level of specific [3H]-Compound A binding as a result of competition by increasing concentrations of the compound under test is plotted graphically, and non-linear regression analysis of the resulthant curve is used to provide an estimate of compound affinity in terms of pKi value.

pKi, greater than 7:
COc1cc(OC)c(C(=O)Nc2cccc3c2CCN(C)C3)cc1Cl [Example 16, N-(2-Methyl-1,2;3,4-tetrahydroisoquinolin-5-yl)-5-chloro-2,4-dimethoxybenzamide]
COc1cc(OC)c(C(=O)Nc2ccc3c(c2)CN(C)CC3)cc1Br.Cl [Example 52, N-(2-Methyl-1,2,3,4-tetrahydroisoquinolin-7-yl)-5-bromo-2,4-dimethoxybenzamide, Hydrochloride Salt]
COc1cc(OC(C)C)c(Cl)cc1C(=O)Nc1cccc2c1CCN(C)C2.Cl [Example 71, N-(2-Methyl-1,2,3,4-tetrahydroisoquinolin-5-yl)-5-chloro-2-methoxy-4-iso-propoxybenzamide, Hydrochloride]
COc1ccc(C(=O)C(C)C)cc1C(=O)Nc1cccc2c1CCN(C)C2 [Example 49, N-(2-Methyl-1,2,3,4-tetrahydroisoquinolin-5-yl) 5-iso-butyroyl-2-methoxy-benzamide Hydrochloride]
COc1cc(C)c(Cl)cc1C(=O)Nc1cccc2c1CCN(C)C2 [Example 20, N-(2-Methyl-1,2,3,4-tetrahydroisoquinolin-5-yl)-5-chloro-2-methoxy-4-methylbenzamide]
COc1cc(OC)c(C(=O)Nc2cccc3c2CCNC3)cc1Cl [Example 19, N-(1,2,3,4-Tetrahydroisoquinolin-5-yl)-5-chloro-2,4-dimethoxybenzamide]
COc1cc(C(C)(C)C)ccc1C(=O)Nc1cccc2c1CCN(C)C2.Cl [Example 35, N-(2-Methyl-1,2,3,4-tetrahydroisoquinolin-5-yl)-4-tert-butyl-2-methoxybenzamide Hydrochloride]
COc1cc(N)c(Br)cc1C(=O)Nc1cccc2c1CCN(C)C2 [Example 7, N-(2-Methyl-1,2,3,4-tetrahydroisoquinolin-5-yl)-4-amino-5-bromo-2-methoxybenzamide]
COc1cc(N)c(I)cc1C(=O)Nc1cccc2c1CCN(C)C2 [Example 13, N-(2-Methyl-1,2,3,4-tetrahydroisoquinolin-5-yl)-4-amino-5-iodo-2-methoxybenzamide]
COc1cc(C(C)C)c(C(F)(F)F)cc1C(=O)Nc1cccc2c1CCN(C)C2.Cl [Example 46, N-(2-Methyl-1,2,3,4-tetrahydroisoquinolin-5-yl)-4-iso-propyl-5-trifluoromethyl-2-methoxybenzamide, Hydrochloride]
COc1cc(N)c(Cl)cc1C(=O)Nc1cccc2c1CCN(C)C2.Cl [Example 1, N-(2-Methyl-1,2,3,4-tetrahydroisoquinolin-5-yl)-4-amino-5-chloro-2-methoxy-benzamide Hydrochloride]
CCOc1cc(OC)c(C(=O)Nc2cccc3c2CCN(C)C3)cc1Cl [Example 23, N-(2-Methyl-1,2,3,4-tetrahydroisoquinolin-5-yl)-5-chloro-4-ethoxy-2-methoxybenzamide]
COc1cc(OC)c(C(=O)Nc2cccc3c2CCN(C)C3)cc1Br [Example 17, N-(2-Methyl-1,2,3,4-tetrahydroisoquinolin-5-yl)-5-bromo-2,4-dimethoxybenzamide]
COc1cc(OC(C)C)c(Br)cc1C(=O)Nc1cccc2c1CCN(C)C2.Cl [Example 45, N-(2-Methyl-1,2,3,4-tetrahydroisoquinolin-5-yl)-5-bromo-4-iso-propoxy-2-methoxybenzamide, Hydrochloride]
COc1cc(OC(C)C)c(C(C)=O)cc1C(=O)Nc1cccc2c1CCN(C)C2.Cl [Example 70, N-(2-Methyl-1,2,3,4-tetrahydroisoquinolin-5-yl)-2-methoxy-4-iso-propyloxy-5-acetyl-benzamide, Hydrochloride]
COc1ccc(C(=O)C(C)(C)C)cc1C(=O)Nc1cccc2c1CCN(C)C2.Cl [Example 50, N-(2-Methyl-1,2,3,4-tetrahydroisoquinolin-5-yl)-5-pivaloyl-2-methoxybenzamide, Hydrochloride]
COc1cc(C)c(Br)cc1C(=O)Nc1cccc2c1CCN(C)C2 [Example 25, N-(2-Methyl-1,2,3,4-tetrahydroisoquinolin-5-yl)-5-bromo-2-methoxy-4-methylbenzamide]
CCc1cc(OC)c(C(=O)Nc2cccc3c2CCN(C)C3)cc1Cl [Example 37, N-(2-Methyl-1,2,3,4-tetrahydroisoquinolin-5-yl)-4-ethyl-2-methoxy-5-chloro Benzamide, Hydrochloride]
CCc1cc(OC)c(C(=O)Nc2cccc3c2CCN(C)C3)cc1C(F)(F)F.Cl [Example 68, N-(2-Methyl-1,2,3,4-tetrahydroisoquinolin-5-yl)-4-ethyl-2-methoxy-5-trifluoromethylbenzamide, Hydrochloride]
CCCOc1cc(N)c(Cl)cc1C(=O)Nc1cccc2c1CCN(C)C2 [Example 10, N-(2-Methyl-1,2,3,4-tetrahydroisoquinolin-5-yl)-4-amino-5-chloro-2-propoxy-benzamide]
